Laboratory results as given in patent US7901901B2, “Assays for measuring phosphate modification enzyme activity” (Roche Palo Alto LLC, priority 2006, dated 2011).

Test: Phosphodiesterase assay using fluorescence polarization with various metallic ion salts
Format: binding
Settings: FIG. 1B, 50 nM TAMRA-cGMP with PDE, 10 mM metal salt in 100 mM NaAc/HAc buffer pH 5.2 with 10 mM ZnSO4
Experimental: After one hour of incubation, the fluorescence polarization was measured using Analyst reader (Molecular Devices).

| Compound | fluorescence signal, indicative of binding to the PDE product |
| --- | --- |
| [Cl][Ga]([Cl])[Cl] [GaCl3] | able to show fluorescence signal |
| [Cl-].[Cl-].[Cl-].[In+3] [InCl3, indium chloride] | able to show fluorescence signal |
